Assay results reported in patent US10301259B2, “Beta-cryptoxanthin from plant source and a process for its preparation” (OMNIACTIVE HEALTH TECHNOLOGIES LIMITED, priority 2013, dated 2019).

Experiments:
[1] = under similar conditions; Burri et al. (2011); cited from earlier work
[2] = system: OVX rat model; assay: Anti-resorptive / anti-osteoporotic activity in OVX rat model (overall conclusions); format: in vivo, Wistar rats

CC1=C(/C=C/C(C)=C/C=C/C(C)=C/C=C/C=C(C)/C=C/C=C(C)/C=C/C2=C(C)CC(O)CC2(C)C)C(C)(C)CCC1 (stereo not drawn) [beta-cryptoxanthin, beta,beta-caroten-3-ol]
Bioavailability relative to beta-carotene [1]: ~7 fold
Anti-osteoporotic activity [2]: significant anti-osteoporotic activity
